Measured values reported in US20260325473A1, “N-Beta-Hydroxybutyryl-Amino Acids and Related Compositions and Methods” (The Board of Trustees of the Leland Stanford Junior …, priority 2023, published 2026).

Legend:
brain lysate proteins = assay: Competition of X-Phe photoprobe-labeled brain proteins, quantitative shotgun proteomics; assay type: binding, mouse; settings: 100 μM photoprobe; 50-fold excess competitor
Procedure: Shotgun proteomics of X-Phe photoprobe-labeled proteins. Brains from wild type C57BL/6J mice were harvested and homogenized using a bead blaster in PBS. Brain homogenate was centrifuged (15,000 rpm, 10 min) to yield the cytosolic supernatant and membrane pellet fractions. The cytosolic fraction was transferred to a new eppie and centrifuged again (15,000 rpm, 10 min). This process was repeated 4 times until no pellet was present after centrifugation. The membrane pellet was washed with 1 ml PBS and centrifuged (15,000 rpm, 10 min); this step was also repeated 4 times to remove any cytosolic protein contamination. After the centrifugation steps, the membrane pellet was re-suspended in PBS and sonicated. For competition experiments, brain lysate was normalized to 2 mg/ml in PBS and incubated with competitors at the indicated concentrations at room temperature for 30 minutes. 100 μM of the photoprobe was added and the reactions incubated on ice for 10 minutes protected from light. Reactions were then put under UV for 1 min on a UV Stratalinker. A biotin click reaction was performed by adding the following reagents to the indicated final concentrations: […], 1 mM CuSO4, 1 mM TCEP (freshly prepared), 30 μM Biotin-N3. Reactions were allowed to proceed for 1 hour at room temp, protected from light, and while rotating. The following prep was adapted from Niphakis et al. 2015. To each reaction, the following solvents were added in order, 4 ml cold methanol, 1 ml cold chloroform, 2 ml cold PBS. The mixture was vortexed well and centrifuged (4,600×g, 15 min, 4° C.). After centrifugation the organic and aqueous layers were removed without disruption of the protein disc. The protein disc was washed with a cold 1:1 mixture of methanol:chloroform 3 times. After the final wash, the protein disc was re-suspended in a 4:1 mixture of methanol:chloroform and sonicated. The insoluble protein was pelleted by centrifugation (4,600×g, 15 min, 4 C) and the pellet re-suspended in freshly prepared 500 μl of 6 M urea in PBS. 20 μl of 10% (w/v) SDS was added to the solution. The solution was then warmed in a 37 C water bath for 10 min to help dissolve poorly soluble protein. A streptavidin pulldown was the performed on the protein mixture. 250 μl of streptavidin beads were washed 3 times with 1 ml PBS. Protein samples were diluted with 5.5 ml of 0.25% SDS in PBS and incubated with streptavidin beads for 1.5 hr at room temperature. Following incubation, beads were washed 5 times each with 0.25% SDS in PBS, then PBS, then lastly with ultra-pure water Steptavidin beads were suspended in 150 μL resuspension buffer (1 M urea, 50 mM Tris-HCl, pH 8). Proteins were digested with 3 μg of trypsin for 4 hours. Digested peptides were reduced with 5 mM TCEP for 10 minutes. Cys residues were alkylated using 15 mM iodoacetimide (IAA) for 20 minutes. Finally, excess IAA was quenched with 10 mM DTT. Acidified digested peptides were desalted over C18 StageTips [PMID: 12585499]. Peptides were then eluted with 80% acetonitrile, 0.1% TFA and dried in a speedvac. Dried samples were reconstituted with 200 mM EPPS buffer, pH 8.0, and labelled with TMT reagents (Thermo Fisher Scientific). Following incubation at room temperature for 2 h, the reactions were quenched with hydroxylamine to a final concentration of 0.5% (v/v). […]

DIO mice = assay: Food, kaolin and water intake in DIO mice; assay type: in vivo, mouse; settings: 50 mg/kg IP, single; 18 h
Procedure: Kaolin and water intake assays. DIO mice were individually housed and allowed ad libitum access to kaolin pellets for 5 days before the start of the experiment. Mice were also provided high-fat diet and had ad libitum access to water. On the day of the experiment, kaolin and high-fat diet pellets were replaced with fresh pellets. Mice were then injected with either vehicle or BHB-Phe (50 mg/kg, IP), and high-fat diet, kaolin and water intake were measured after 18 h.

[1] = Metabolite quantitation in mouse plasma (QQQ-LC/MS); assay type: in vivo
Procedure: Preparation of plasma samples for LC-MS analysis. Plasma was collected from mice via a submandibular bleed into lithium heparin tubes (BD, 365985) and immediately transferred onto ice. The blood was centrifuged at 4° C. at 5000 rpm for 5 min and the top layer of plasma was aliquoted and frozen at −80 °C. To extract polar metabolites from plasma for LC-MS analysis, 150 μl of a 2:1 mixture of acetonitrile/methanol was added to 50 μl of plasma. The mixture was centrifuged at 4° C. for 10 min at 15,000 rpm and the supernatant was transferred to a LC-MS vial.
Targeted metabolomics. Targeted measurements were performed using an Agilent 6470 triple quadrupole LC-MS instrument. MS analysis was performed using AJS in negative mode. The AJS source parameters were set as follows: the dry gas temperature was set at 250° C. with a gas flow of 12 l/min and the nebulizer pressure at 25 psi; the sheath gas temperature was set to 300° C. with the sheath gas flow set at 12 l/min; and the capillary voltage was set to 3,500 V. Separation of polar metabolites was performed as described above in the ‘Untargeted measurements of metabolites by LC-MS’ section. Multiple reaction monitoring was performed for the indicated metabolites with the listed dwell times, fragmentor voltage, collision energies, cell accelerator voltages and polarities. Quantification of the endogenous metabolite concentrations were performed by generating a standard curve with known concentrations of each metabolite. Metabolite standards were analyzed alongside the plasma samples using the same targeted triple quadrupole LC/MS method. A calibration standard curve generated from the metabolite standard concentrations and total peak areas were used to calculate the concentrations of each endogenous metabolite. The dilution of the plasma during the sample preparation was also taken into account for the quantification.

CC(O)CC(=O)N[C@@H](Cc1ccccc1)C(=O)O (some centres unmarked) [BHB-Phe, N-betahydroxybutyryl-phenylalanine]
competition of X-Phe photoprobe-labeled proteins (brain lysate proteins): > 80%
number of brain proteins crosslinked by X-Phe photoprobe and >80% competed by Keto-Phe (brain lysate proteins): 32 proteins
food intake (kaolin/water experiment) (DIO mice): suppressed food intake
kaolin consumption (DIO mice): without affecting water intake or kaolin consumption
water intake (DIO mice): without affecting water intake
effect of acute treadmill running on level ([1]; 15 min running): unchanged
elevation after ketone ester administration ([1]; 30 min after ketone drink, 3 mg/g): > 10 fold
effect of strenuous and prolonged exercise on level ([1]; 30 min strenuous running): robust co-induction
